Source: ChEMBL document CHEMBL1201862, “PubChem BioAssay data set” (2004)
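Cells were grown in 96-well plates and exposed to each compound for 48 hours at five concentrations; endpoints were interpolated linearly between bracketing concentrations, or set to the highest concentration if not reached. GI50 is the concentration that inhibits growth by half.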 Active and inactive are the calls of the source. Cut-off read from the data, not from the text of the source: active = GI50 up to about 1.1 µM and inactive = higher.

How the values were obtained:
Experiment in all cases: NCI anticancer screen, dose series, 48 h
ACHN = tested on: ACHN
BT-549 = tested on: BT-549
CAKI-1 = tested on: CAKI-1
COLO 205 = tested on: COLO 205
HCC 2998 = tested on: HCC 2998
Hs-578T = tested on: Hs-578T
LOX IMVI = tested on: LOX IMVI
MCF7 = tested on: MCF7
NCI-H460 = tested on: NCI-H460
NCI/ADR-RES = tested on: NCI/ADR-RES
OVCAR-8 = tested on: OVCAR-8
PC-3 = tested on: PC-3
RPMI-8226 = tested on: RPMI-8226
SK-MEL-28 = tested on: SK-MEL-28
SK-MEL-2 = tested on: SK-MEL-2
SK-MEL-5 = tested on: SK-MEL-5
SNB-75 = tested on: SNB-75
SR = tested on: SR
T47D = tested on: T47D
UACC-62 = tested on: UACC-62

Row | SMILES | GI50 (ACHN) | GI50 (BT-549) | GI50 (CAKI-1) | GI50 (COLO 205) | GI50 (HCC 2998) | GI50 (Hs-578T) | GI50 (LOX IMVI) | GI50 (MCF7) | GI50 (NCI-H460) | GI50 (NCI/ADR-RES) | GI50 (OVCAR-8) | GI50 (PC-3) | GI50 (RPMI-8226) | GI50 (SK-MEL-28) | GI50 (SK-MEL-2) | GI50 (SK-MEL-5) | GI50 (SNB-75) | GI50 (SR) | GI50 (T47D) | GI50 (UACC-62)
1 | CCOC(=O)c1ccc2c(c1)nc1n2C(c2c(F)cccc2F)SC1 (centres undefined) | 18.3 µM (inactive) | 80.5 µM (inactive) | 78.3 µM (inactive) | 14.2 µM (inactive) | 35.8 µM (inactive) | 26.2 µM (inactive) | 21.1 µM (inactive) | 19.9 µM (inactive) | 26.3 µM (inactive) | 18.8 µM (inactive) | 21.6 µM (inactive) | 21.3 µM (inactive) | 21.8 µM (inactive) | 97.1 µM (inactive) | 15.2 µM (inactive) | 13.1 µM (inactive) | 62.5 µM (inactive) | 25.6 µM (inactive) | 12.8 µM (inactive) | 25.4 µM (inactive)
2 | CCN(CC)C1Oc2cc3c(cc2C(c2cccc(OC)c2O)C1C)OCO3 (centres undefined) | 6.25 µM (inactive) | 7.18 µM (inactive) | 5.6 µM (inactive) | 3.03 µM (inactive) | 12.4 µM (inactive) | 2.51 µM (inactive) | 4.31 µM (inactive) | 9.55 µM (inactive) | 4.24 µM (inactive) | 4.62 µM (inactive) | 13.7 µM (inactive) | 3.63 µM (inactive) | 3.24 µM (inactive) | 5.96 µM (inactive) | 4.52 µM (inactive) | 2.97 µM (inactive) | 2.81 µM (inactive) | 4.75 µM (inactive) | 14.5 µM (inactive) | 5.24 µM (inactive)
3 | Cc1cc(S(=O)(=O)n2ccnc2Oc2cccc(Cl)c2)c(SSc2cc(Cl)c(C)cc2S(=O)(=O)n2ccnc2Oc2cccc(Cl)c2)cc1Cl | 8.36 µM (inactive) | 4.3 µM (inactive) | 10.9 µM (inactive) | 2.57 µM (inactive) | 20.7 µM (inactive) | 4.19 µM (inactive) | 30 µM (inactive) | 3.21 µM (inactive) | 7.8 µM (inactive) | 3.1 µM (inactive) | 6.59 µM (inactive) | 6.11 µM (inactive) | 2.67 µM (inactive) | 14.1 µM (inactive) | 7.66 µM (inactive) | 3.42 µM (inactive) | 7.59 µM (inactive) | 9.06 µM (inactive) | 2.98 µM (inactive) | 5.7 µM (inactive)
4 | CC(C)C[C@H](NC(=O)[C@H](CCc1ccccc1)NC(=O)c1ccc2ccccc2n1)B(O)O | < 0.01 µM (active) | < 0.01 µM (active) | < 0.0194 µM (active) | 0.043 µM (active) | 0.0292 µM (active) | 0.0245 µM (active) | 0.0144 µM (active) | < 0.01 µM (active) | 0.394 µM (active) | 0.706 µM (active) | 0.163 µM (active) | 0.0731 µM (active) | < 0.01 µM (active) | < 0.01 µM (active) | < 0.01 µM (active) | < 0.0136 µM (active) | 0.0302 µM (active) | < 0.0158 µM (active) | < 0.01 µM (active) | 0.0973 µM (active)
5 | CCCCc1cc2c(C)cc(=O)oc2c(O)c1O | 33 µM (inactive) | 14.6 µM (inactive) | 23.4 µM (inactive) | 25.8 µM (inactive) | 3.15 µM (inactive) | 22.9 µM (inactive) | 20.5 µM (inactive) | 21.4 µM (inactive) | 22.6 µM (inactive) | 22.6 µM (inactive) | 31.6 µM (inactive) | 21.3 µM (inactive) | 17.5 µM (inactive) | 37.3 µM (inactive) | 3.6 µM (inactive) | 20.7 µM (inactive) | 27.1 µM (inactive) | 18 µM (inactive) | 21.7 µM (inactive) | –
6 | O=c1c2ccccc2nc(-c2ccccc2)n1/N=C/c1ccccc1[N+](=O)[O-] | 27.8 µM (inactive) | 31.3 µM (inactive) | > 100 µM (inactive) | > 100 µM (inactive) | > 100 µM (inactive) | 1.59 µM (inactive) | > 100 µM (inactive) | > 78.2 µM (inactive) | > 91.2 µM (inactive) | 16.7 µM (inactive) | > 46.2 µM (inactive) | > 100 µM (inactive) | > 100 µM (inactive) | > 100 µM (inactive) | 74.5 µM (inactive) | > 75.2 µM (inactive) | 7.41 µM (inactive) | > 100 µM (inactive) | 86.9 µM (inactive) | 79.6 µM (inactive)
7 | COc1cc2c(cc1OC(=O)c1cc3ccccc3[nH]1)N=C[C@@H]1CCCN1C2=O | 0.244 µM (active) | 0.638 µM (active) | 0.294 µM (active) | 0.202 µM (active) | 0.269 µM (active) | 1.3 µM (inactive) | 0.332 µM (active) | 0.397 µM (active) | 0.344 µM (active) | 0.461 µM (active) | 0.462 µM (active) | 0.585 µM (active) | 0.334 µM (active) | 0.531 µM (active) | 0.224 µM (active) | 0.175 µM (active) | 1.41 µM (inactive) | 0.174 µM (active) | 0.851 µM (active) | 0.269 µM (active)
8 | CCN(CC)C1Oc2cc3c(cc2C(c2cc(OC)c(O)c(OC)c2)C1C)OCO3 (centres undefined) | 18.3 µM (inactive) | 6.95 µM (inactive) | 12.5 µM (inactive) | 15.5 µM (inactive) | 7.01 µM (inactive) | 6.84 µM (inactive) | 9.66 µM (inactive) | 4.85 µM (inactive) | 6.18 µM (inactive) | 5.92 µM (inactive) | 14.8 µM (inactive) | 14.4 µM (inactive) | 7.14 µM (inactive) | 14.2 µM (inactive) | 18.7 µM (inactive) | 3.63 µM (inactive) | 3.48 µM (inactive) | 4.57 µM (inactive) | 16.8 µM (inactive) | 4.49 µM (inactive)
9 | COC(=O)C1C(OC(=O)c2ccccc2)CC2CCC1N2C(N)=O (centres undefined) | > 100 µM (inactive) | > 100 µM (inactive) | > 100 µM (inactive) | > 100 µM (inactive) | > 100 µM (inactive) | > 100 µM (inactive) | > 100 µM (inactive) | > 100 µM (inactive) | > 100 µM (inactive) | > 100 µM (inactive) | > 100 µM (inactive) | > 100 µM (inactive) | > 100 µM (inactive) | > 100 µM (inactive) | > 100 µM (inactive) | > 100 µM (inactive) | > 100 µM (inactive) | > 100 µM (inactive) | > 100 µM (inactive) | > 100 µM (inactive)
10 | O=C(O)c1ccc(C2=Nc3cccc4cccc(c34)N2)cc1 | > 100 µM (inactive) | > 100 µM (inactive) | > 100 µM (inactive) | > 100 µM (inactive) | > 100 µM (inactive) | > 100 µM (inactive) | > 100 µM (inactive) | > 100 µM (inactive) | > 100 µM (inactive) | > 100 µM (inactive) | > 100 µM (inactive) | > 100 µM (inactive) | > 100 µM (inactive) | > 100 µM (inactive) | > 100 µM (inactive) | > 100 µM (inactive) | > 100 µM (inactive) | 30.6 µM (inactive) | 57.9 µM (inactive) | > 100 µM (inactive)
11 | Cc1ccc(C(=O)O)c(CC2Cc3c(C)cccc3C2=O)c1 (centres undefined) | > 100 µM (inactive) | > 100 µM (inactive) | > 100 µM (inactive) | > 100 µM (inactive) | > 100 µM (inactive) | > 100 µM (inactive) | 90.4 µM (inactive) | > 100 µM (inactive) | > 100 µM (inactive) | > 100 µM (inactive) | > 100 µM (inactive) | > 100 µM (inactive) | > 100 µM (inactive) | > 100 µM (inactive) | > 100 µM (inactive) | > 100 µM (inactive) | > 100 µM (inactive) | > 100 µM (inactive) | > 100 µM (inactive) | > 100 µM (inactive)
12 | CC(=O)Nc1ccc(Nc2nc(=O)[nH]c(=O)[nH]2)cc1 | > 100 µM (inactive) | > 100 µM (inactive) | > 100 µM (inactive) | > 100 µM (inactive) | > 100 µM (inactive) | > 100 µM (inactive) | > 100 µM (inactive) | > 100 µM (inactive) | > 100 µM (inactive) | > 100 µM (inactive) | > 100 µM (inactive) | > 100 µM (inactive) | > 100 µM (inactive) | > 100 µM (inactive) | > 100 µM (inactive) | > 100 µM (inactive) | > 100 µM (inactive) | > 100 µM (inactive) | > 100 µM (inactive) | > 100 µM (inactive)
13 | CCOC(=O)c1ccc(C(=O)C(C(C)=O)C(=O)OC(C)(C)C)n1C (centres undefined) | > 100 µM (inactive) | > 100 µM (inactive) | > 100 µM (inactive) | > 100 µM (inactive) | > 100 µM (inactive) | > 100 µM (inactive) | > 100 µM (inactive) | > 100 µM (inactive) | > 100 µM (inactive) | > 100 µM (inactive) | > 100 µM (inactive) | > 100 µM (inactive) | > 100 µM (inactive) | > 100 µM (inactive) | > 100 µM (inactive) | > 100 µM (inactive) | 78.5 µM (inactive) | 57.4 µM (inactive) | > 100 µM (inactive) | > 100 µM (inactive)
14 | O=C1N[C@@H]2c3c(csc3Br)C(=O)[C@@H]2O1 | 37.2 µM (inactive) | 38.5 µM (inactive) | 20.8 µM (inactive) | 35 µM (inactive) | 17.9 µM (inactive) | 31 µM (inactive) | 19 µM (inactive) | 32.6 µM (inactive) | 43.4 µM (inactive) | 96.4 µM (inactive) | 22.2 µM (inactive) | 41.6 µM (inactive) | 26.9 µM (inactive) | 33.3 µM (inactive) | 46.5 µM (inactive) | > 100 µM (inactive) | 48.4 µM (inactive) | 26.1 µM (inactive) | 28.8 µM (inactive) | 34.1 µM (inactive)
